Target: Factor D (Homo sapiens, UniProt P00746)
Assay: Factor D esterolytic assay (Z-Lys-SBzl thioester substrate, DTNB, 405 nm)
Type: biochemical
Conditions: substrate Z-Lys-SBzl 1.29 mM, 100 mM HEPES, 500 mM NaCl, pH 7.5, 10% DMSO, tested a minimum of three times
Procedure, shortened: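 Run in pH 7.5 HEPES (100 mM) with 500 mM NaCl and 10% DMSO, with compound preincubated at room temperature or not before adding 1.29 mM Z-Lys-SBzl. Free thiol released by Factor D reacts with DTNB, and rate is followed at 405 nm minus 690 nm over 600 s. IC50 derives from rate-based inhibition, minimum three replicates.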

Factor D, sequence (P00746 26-253): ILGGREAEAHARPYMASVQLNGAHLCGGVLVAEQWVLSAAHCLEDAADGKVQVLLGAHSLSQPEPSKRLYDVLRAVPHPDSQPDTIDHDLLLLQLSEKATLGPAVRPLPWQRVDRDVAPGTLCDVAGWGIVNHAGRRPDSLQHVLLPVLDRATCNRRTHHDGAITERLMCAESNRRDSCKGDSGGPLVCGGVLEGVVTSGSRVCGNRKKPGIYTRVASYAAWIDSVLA

SMILES	IC50 [nM]
Cc1cccc2c1c1c(N)ncnc1n2CC(=O)N1[C@@H]2C[C@@H]2C[C@H]1C(=O)Nc1cccc(Br)n1 [Compound 56g, (1R,3S,5R)-2-(2-(4-amino-5-methyl-9H-pyrimido[4,5-b]indol-9-yl)acetyl)-N-(6-bromopyridin-2-yl)-2-azabicyclo[3.1.0]hexane-3-carboxamide]	100 to 1000
COc1cccc2c1c1c(N)ncnc1n2CC(=O)N1[C@@H]2C[C@@H]2C[C@H]1C(=O)Nc1cccc(Br)n1 [Compound 57g, (1R,3S,5R)-2-(2-(4-amino-5-methoxy-9H-pyrimido[4,5-b]indol-9-yl)acetyl)-N-(6-bromopyridin-2-yl)-2-azabicyclo[3.1.0]hexane-3-carboxamide]	< 100
CC(=O)c1ccc2c(c1)c1c(N)ncnc1n2CC(=O)N1[C@@H]2C[C@@H]2C[C@H]1C(=O)Nc1cccc(Br)n1 [Compound 58c, (1R,3S,5R)-2-(2-(6-acetyl-4-amino-9H-pyrimido[4,5-b]indol-9-yl)acetyl)-N-(6-bromopyridin-2-yl)-2-azabicyclo[3.1.0]hexane-3-carboxamide]	< 100
NC(=O)c1ccc2c(c1)c1c(N)ncnc1n2CC(=O)N1[C@@H]2C[C@@H]2C[C@H]1C(=O)Nc1cccc(Br)n1 [Compound 60c, 4-amino-9-(2-((1R,3S,5R)-3-((6-bromopyridin-2-yl)carbamoyl)-2-azabicyclo[3.1.0]hexan-2-yl)-2-oxoethyl)-9H-pyrimido[4,5-b]indole-6-carboxamide]	< 100
Nc1ccc2c(c1)c1c(N)ncnc1n2CC(=O)N1[C@@H]2C[C@@H]2C[C@H]1C(=O)Nc1cccc(Br)n1 [Compound 61a, (1R,3S,5R)—N-(6-bromopyridin-2-yl)-2-(2-(4,6-diamino-9H-pyrimido[4,5-b]indol-9-yl)acetyl)-2-azabicyclo[3.1.0]hexane-3-carboxamide]	< 100
Nc1ncnc2c1c1cc(-c3ccccc3)ccc1n2CC(=O)N1[C@@H]2C[C@@H]2C[C@H]1C(=O)Nc1cccc(Br)n1 [Compound 62c, (1R,3S,5R)-2-(2-(4-amino-6-phenyl-9H-pyrimido[4,5-b]indol-9-yl)acetyl)-N-(6-bromopyridin-2-yl)-2-azabicyclo[3.1.0]hexane-3-carboxamide]	< 100
Nc1ncnc2c1ccn2CC(=O)N1C[C@H](F)C[C@H]1C(=O)NCc1cccc(Cl)c1F [Compound 64a, (2S,4R)-1-(2-(4-amino-7H-pyrrolo[2,3-d]pyrimidin-7-yl)acetyl)-N-(3-chloro-2-fluorobenzyl)-4-fluoropyrrolidine-2-carboxamide]	< 100
Nc1ncnn2c(CC(=O)N3C[C@H](F)C[C@H]3C(=O)NCc3cccc(Cl)c3F)ccc12 [Compound 65a, (2S,4R)-1-(2-(4-aminopyrrolo[2,1-f][1,2,4]triazin-7-yl)acetyl)-N-(3-chloro-2-fluorobenzyl)-4-fluoropyrrolidine-2-carboxamide]	< 100
Nc1ncnn2c(CC(=O)N3[C@@H]4C[C@@H]4C[C@H]3C(=O)NCc3cccc(Cl)c3F)ccc12 [Compound 66b, (1R,3S,5R)-2-(2-(4-aminopyrrolo[2,1-f][1,2,4]triazin-7-yl)acetyl)-N-(3-chloro-2-fluorobenzyl)-2-azabicyclo[3.1.0]hexane-3-carboxamide]	100 to 1000
Nc1ncnn2c(CC(=O)N3C[C@H](F)C[C@H]3C(=O)Nc3cccc(Br)n3)ccc12 [Compound 69a, (2S,4R)-1-(2-(4-aminopyrrolo[2,1-f][1,2,4]triazin-7-yl)acetyl)-N-(6-bromopyridin-2-yl)-4-fluoropyrrolidine-2-carboxamide]	100 to 1000
Cc1ccc(Br)nc1NC(=O)[C@@H]1C[C@@]2(C)C[C@H]2N1C(=O)Cc1ccc2c(N)ncnn12 [Compound 72a, (1R,3S,5R)-2-(2-(4-aminopyrrolo[2,1-f][1,2,4]triazin-7-yl)acetyl)-N-(6-bromo-3-methylpyridin-2-yl)-5-methyl-2-azabicyclo[3.1.0]hexane-3-carboxamide]	100 to 1000
CNc1ncnc2c1cnn2CC(=O)N1CCC[C@H]1C(=O)Nc1cccc(Br)n1 [Compound 75d, (S)—N-(6-bromopyridin-2-yl)-1-(2-(4-(methylamino)-1H-pyrazolo[3,4-d]pyrimidin-1-yl)acetyl)pyrrolidine-2-carboxamide]	> 1000

Continued, values first:

IC50 [nM]	SMILES
< 100	Cc1cccc2c3c(N)ncnc3n(CC(=O)N3[C@H](C(=O)Nc4cccc(Br)n4)C[C@@]4(C)C[C@@H]34)c12 [Compound 55a, (1R,3S,5R)-2-(2-(4-amino-8-methyl-9H-pyrimido[4,5-b]indol-9-yl)acetyl)-N-(6-bromopyridin-2-yl)-5-methyl-2-azabicyclo[3.1.0]hexane-3-carboxamide]
< 100	C=Cc1ccc2c(c1)c1c(N)ncnc1n2CC(=O)N1[C@@H]2C[C@@H]2C[C@H]1C(=O)Nc1cccc(Br)n1 [Compound 59c, (1R,3S,5R)-2-(2-(4-amino-6-vinyl-9H-pyrimido[4,5-b]indol-9-yl)acetyl)-N-(6-bromopyridin-2-yl)-2-azabicyclo[3.1.0]hexane-3-carboxamide]
< 100	NCc1ccc2c(c1)c1c(N)ncnc1n2CC(=O)N1[C@@H]2C[C@@H]2C[C@H]1C(=O)Nc1cccc(Br)n1 [Compound 63d, (1R,3S,5R)-2-(2-(4-amino-6-(aminomethyl)-9H-pyrimido[4,5-b]indol-9-yl)acetyl)-N-(6-bromopyridin-2-yl)-2-azabicyclo[3.1.0]hexane-3-carboxamide]
100 to 1000	C[C@@]12C[C@@H](C(=O)NCc3cccc(Cl)c3F)N(C(=O)Cn3cnc4c(N)ncnc43)[C@@H]1C2 [Compound 67c, (1R,3S,5R)-2-(2-(6-amino-9H-purin-9-yl)acetyl)-N-(3-chloro-2-fluorobenzyl)-5-methyl-2-azabicyclo[3.1.0]hexane-3-carboxamide]
100 to 1000	Cc1ccc(Br)nc1NC(=O)[C@@H]1C[C@@H](F)CN1C(=O)Cn1cnc2c(N)ncnc21 [Compound 68a, (2S,4R)-1-(2-(6-amino-9H-purin-9-yl)acetyl)-N-(6-bromo-3-methylpyridin-2-yl)-4-fluoropyrrolidine-2-carboxamide]
100 to 1000	Nc1ncnn2c(CC(=O)N3[C@@H]4C[C@@H]4C[C@H]3C(=O)Nc3cccc(Br)n3)ccc12 [Compound 70a, (1R,3S,5R)-2-(2-(4-aminopyrrolo[2,1-f][1,2,4]triazin-7-yl)acetyl)-N-(6-bromopyridin-2-yl)-2-azabicyclo[3.1.0]hexane-3-carboxamide]
100 to 1000	C[C@@]12C[C@@H](C(=O)Nc3cccc(Br)n3)N(C(=O)Cc3ccc4c(N)ncnn34)[C@@H]1C2 [Compound 71a, (1R,3S,5R)-2-(2-(4-aminopyrrolo[2,1-f][1,2,4]triazin-7-yl)acetyl)-N-(6-bromopyridin-2-yl)-5-methyl-2-azabicyclo[3.1.0]hexane-3-carboxamide]
< 100	C[C@@]12C[C@@H](C(=O)Nc3cccc(Br)n3)N(C(=O)Cn3ccc4c(N)ncnc43)[C@@H]1C2 [Compound 73a, (1R,3S,5R)-2-(2-(4-amino-7H-pyrrolo[2,3-d]pyrimidin-7-yl)acetyl)-N-(6-bromopyridin-2-yl)-5-methyl-2-azabicyclo[3.1.0]hexane-3-carboxamide]
100 to 1000	Cc1ccc(Br)nc1NC(=O)[C@@H]1C[C@@]2(C)C[C@H]2N1C(=O)Cn1ccc2c(N)ncnc21 [Compound 74a, (1R,3S,5R)-2-(2-(4-amino-7H-pyrrolo[2,3-d]pyrimidin-7-yl)acetyl)-N-(6-bromo-3-methylpyridin-2-yl)-5-methyl-2-azabicyclo[3.1.0]hexane-3-carboxamide]

Reference: patent US12679843B2, “Pyrrolopyrimidine amines as complement inhibitors” (BioCryst Pharmaceuticals, Inc., priority 2020, dated 2026)
